Data reported in patent US20250275991A1, “ORAL COMPLEMENT FACTOR D INHIBITORS” (BioCryst Pharmaceuticals, Inc, priority 2019, published 2025).
pIC50: −log10 of the molar value.

molecular target: Factor D (Homo sapiens, UniProt P00746); assay: Factor D esterolytic assay; format: biochemical; settings: substrate Z-Lys-SBzl 1.29 mM, 100 mM HEPES, 500 mM NaCl, pH 7.5, 10% DMSO, tested a minimum of three times
Protocol: The IC50 value of a compound (i.e., the concentration of the compound that inhibits 50% of the enzymatic activity) was calculated according to the procedure reported in U.S. Pat. No. 6,653,340 B1, e.g., column 74 (incorporated by reference).
Specifically, the compounds were dissolved in a stock solution of DMSO at 10.0 or 100 mM. A portion of this stock solution was added to assay buffer in a final volume of 50 μL. Controls included buffer alone and enzyme solutions to which DMSO was added. Substrate was added to the reaction wells immediately or after incubation at room temperature. The reaction rates were measured spectrophotometrically by the generation of product at 405 nm for 600 sec. Background absorbance at 690 nm was measured and subtracted from the absorbance at 405 nm for each well.
The reaction rate for enzyme alone was compared to the rate of enzyme in the presence of inhibitor and the percent inhibition was calculated as shown below: […]
An established esterolytic assay for the measurement of Factor D activity and inhibition of Factor D activity was used (Kam, C. M.; McRae, B. J.; Harper, J. W.; Niemann, M. A.; Volanakis, J. E.; Powers, J. C. Human complement proteins D, C2, and B Active site mapping with peptide thioester substrates. J Biol. Chem. 1987, 262, 3444-3451). For this assay Z-Lys-SBzl, 1.29 mM (Kim, S.; Narayana, S. V. L; Volanakis, J. E. Mutational analysis of the substrate binding site of human complement Factor D. Biochemistry. 1994, 33, 14393-14399.) was used as the substrate for Factor D ([…]). Hydrolysis of this compound by Factor D liberated a free sulfhydryl group which is then reacted with 5,5′-dithiobis(2nitrobenzoic acid) producing an intense yellow color (Habeeb, A. F. S. A. Reaction of protein sulfhydryl groups with Ellman's Reagent. Methods in Enzymol. 1976, 25, 457-464). The assays were performed in 96 well microtiter plates and rates of hydrolysis were monitored at 405 nm on a Biotek Synergy H1 plate reader. Hydrolysis rates were reported as change in mOD/min. The assay was conducted in 100 mM HEPES, 500 mM NaCl, pH 7.5 containing 10% DMSO in a final volume of 50 μL per well.
An IC50, a compound concentration which inhibits 50% of the enzymatic activity, was calculated. Compounds in the examples were tested a minimum of three times.

Factor D, sequence (P00746 26-253): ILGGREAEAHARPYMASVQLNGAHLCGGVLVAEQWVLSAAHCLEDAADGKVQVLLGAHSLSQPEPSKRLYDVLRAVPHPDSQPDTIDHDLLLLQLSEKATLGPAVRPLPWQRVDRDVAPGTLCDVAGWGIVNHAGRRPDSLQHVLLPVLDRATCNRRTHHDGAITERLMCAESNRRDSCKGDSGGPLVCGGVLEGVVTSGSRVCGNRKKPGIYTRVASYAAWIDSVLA

pIC50 | Compound
> 6.00 | Cc1ccc(CC(=O)O)c(OCc2cc(-c3ccnc(CN)c3)c3occc3c2)c1C [Compound 22h, 2-(2-((7-(2-(aminomethyl)pyridin-4-yl)benzofuran-5-yl)methoxy)-3,4-dimethylphenyl)acetic acid]
> 6.00 | CC(C)C(N)C(=O)OCc1cc2cc(COc3ccccc3CC(=O)O)cc(-c3cccc(CN)c3)c2o1 (centres unmarked) [Compound 24b, 2-(2-((2-(((2-amino-3-methylbutanoyl)oxy)methyl)-7-(3-(aminomethyl)phenyl)benzofuran-5-yl)methoxy)phenyl)acetic acid]
> 6.00 | CCOC(=O)NCc1cc2cc(COc3ccccc3CC(=O)O)cc(-c3cccc(CN)c3)c2o1 [Compound 25h, 2-(2-((7-(3-(aminomethyl)phenyl)-2-(((ethoxycarbonyl)amino)methyl)benzofuran-5-yl)methoxy)phenyl)acetic acid]
> 6.00 | CCCCCCC(=O)NCc1ccc(CC(=O)O)c(OCc2cc(-c3cccc(CN)c3)c3occc3c2)c1 [Compound 26f, 2-(2-((7-(3-(aminomethyl)phenyl)benzofuran-5-yl)methoxy)-4-(heptanamidomethyl)phenyl)acetic acid]
> 6.00 | CC(C)OC(=O)NCc1ccc(CC(=O)O)c(OCc2cc(-c3cccc(CN)c3)c3occc3c2)c1 [Compound 27c, 2-(2-((7-(3-(aminomethyl)phenyl)benzofuran-5-yl)methoxy)-4-((isopropoxycarbonylamino)methyl)phenyl)acetic acid]
> 6.00 | CC(C)CC(=O)NCc1ccc(CC(=O)O)c(OCc2cc(-c3cccc(CN)c3)c3occc3c2)c1 [Compound 28c, 2-(2-((7-(3-(aminomethyl)phenyl)benzofuran-5-yl)methoxy)-4-((3-methylbutanamido)methyl)phenyl)acetic acid]
> 6.00 | CCOC(=O)NCc1ccc(CC(=O)O)c(OCc2cc(-c3cccc(CN)c3)c3occc3c2)c1 [Compound 29c, 2-(2-((7-(3-(aminomethyl)phenyl)benzofuran-5-yl)methoxy)-4-((ethoxycarbonylamino)methyl)phenyl)acetic acid]
> 6.00 | CC(=O)NCc1ccc(CC(=O)O)c(OCc2cc(-c3cccc(CN)c3)c3occc3c2)c1 [Compound 30c, 2-(4-(acetamidomethyl)-2-((7-(3-(aminomethyl)phenyl)benzofuran-5-yl)methoxy)phenyl)acetic acid]
> 6.00 | NCc1cccc(-c2cc(COc3cc(CN)ccc3CC(=O)O)cc3c(C(F)(F)F)coc23)c1 [Compound 31d, 2-(4-(aminomethyl)-2-((7-(3-(aminomethyl)phenyl)-3-(trifluoromethyl)benzofuran-5-yl)methoxy)phenyl)acetic acid]
> 6.00 | CCOP(=O)(NCc1ccc(CC(=O)O)c(OCc2cc(-c3cccc(CN)c3)c3occc3c2)c1)OCC [Compound 32c, 2-(2-((7-(3-(aminomethyl)phenyl)benzofuran-5-yl)methoxy)-4-((diethoxyphosphorylamino)methyl)phenyl)acetic acid]
> 6.00 | CS(=O)(=O)NCc1ccc(CC(=O)O)c(OCc2cc(-c3cccc(CN)c3)c3occc3c2)c1 [Compound 33c, 2-(2-((7-(3-(aminomethyl)phenyl)benzofuran-5-yl)methoxy)-4-(methylsulfonamidomethyl)phenyl)acetic acid]
> 6.00 | NCc1cccc(-c2cc(COc3cc(CNP(=O)(OCc4ccccc4)OCc4ccccc4)ccc3CC(=O)O)cc3ccoc23)c1 [Compound 34c, 2-(2-((7-(3-(aminomethyl)phenyl)benzofuran-5-yl)methoxy)-4-((bis(benzyloxy)phosphorylamino)methyl)phenyl)acetic acid]
> 6.00 | NCc1cccc(-c2cc(C(Oc3ccccc3CC(=O)O)C(=O)O)cc3ccoc23)c1 (centres unmarked) [Compound 35e, 2-(7-(3-(aminomethyl)phenyl)benzofuran-5-yl)-2-(2-(carboxymethyl)phenoxy)acetic acid]
> 6.00 | O=CNCc1nccc(-c2cc(COc3ccccc3CC(=O)O)cc3ccoc23)c1F [Compound 36f, 2-(2-((7-(3-fluoro-2-(formamidomethyl)pyridin-4-yl)benzofuran-5-yl)methoxy)phenyl)acetic acid]
> 6.00 | CCNCc1nccc(-c2cc(COc3ccccc3CC(=O)O)cc3ccoc23)c1F [Compound 37d, 2-(2-((7-(2-((ethylamino)methyl)-3-fluoropyridin-4-yl)benzofuran-5-yl)methoxy)phenyl)acetic acid]
> 6.00 | CCC(C(=O)O)c1ccccc1OCc1cc(-c2ccnc(CN)c2F)c2occc2c1 (centres unmarked) [Compound 38c, 2-(2-((7-(2-(aminomethyl)-3-fluoropyridin-4-yl)benzofuran-5-yl)methoxy)phenyl)butanoic acid]
5.00 to 6.00 | CC(C)(C)OC(=O)Cc1ccccc1OCc1cc(-c2ccnc(CN)c2F)c2occc2c1 [Compound 39e, tert-butyl 2-(2-((7-(2-(aminomethyl)-3-fluoropyridin-4-yl)benzofuran-5-yl)methoxy)phenyl)acetate]
> 6.00 | NCc1nccc(-c2cc(COc3ccccc3CC(=O)O)cc3c2OCC3)c1F [Compound 40g, 2-(2-((7-(2-(aminomethyl)-3-fluoropyridin-4-yl)-2,3-dihydrobenzofuran-5-yl)methoxy)phenyl)acetic acid]
5.00 to 6.00 | NC(CC(F)(F)F)c1cccc(-c2cc(COc3ccccc3CC(=O)O)cc3ccoc23)c1 (centres unmarked) [Compound 41e, 2-(2-((7-(3-(1-amino-3,3,3-trifluoropropyl)phenyl)benzofuran-5-yl)methoxy)phenyl)acetic acid]
> 6.00 | COc1ccc(CC(=O)O)c(OCc2cc(-c3cccc(CN)c3F)c3occc3c2F)c1 [Compound 42e, 2-(2-((7-(3-(aminomethyl)-2-fluorophenyl)-4-fluorobenzofuran-5-yl)methoxy)-4-methoxyphenyl)acetic acid]
> 6.00 | COc1ccc(CC(=O)O)c(OCc2cc(-c3ccnc(CN)c3)c3occc3c2F)c1 [Compound 43d, 2-(2-((7-(2-(aminomethyl)pyridin-4-yl)-4-fluorobenzofuran-5-yl)methoxy)-4-methoxyphenyl)acetic acid]
> 6.00 | NCc1cccc(-c2cc(COc3ccccc3CC(=O)O)cc3c(F)coc23)c1 [Compound 44d, 2-(2-((7-(3-(aminomethyl)phenyl)-3-fluorobenzofuran-5-yl)methoxy)phenyl)acetic acid]
> 6.00 | NCc1cccc(-c2cc(COc3ccccc3CC(=O)O)cc3c(F)coc23)c1F [Compound 45b, 2-(2-((7-(3-(aminomethyl)-2-fluorophenyl)-3-fluorobenzofuran-5-yl)methoxy)phenyl)acetic acid]
> 6.00 | NCc1nccc(-c2cc(COc3ccccc3CC(=O)O)cc3c(F)coc23)c1F [Compound 46d, 2-(2-((7-(2-(aminomethyl)-3-fluoropyridin-4-yl)-3-fluorobenzofuran-5-yl)methoxy)phenyl)acetic acid]
> 6.00 | NCc1cc(-c2cc(COc3ccccc3CC(=O)O)cc3c(F)coc23)ccn1 [Compound 47c, 2-(2-((7-(2-(aminomethyl)pyridin-4-yl)-3-fluorobenzofuran-5-yl)methoxy)phenyl)acetic acid]

Compound | pIC50
CC(=O)OCc1cc2cc(COc3ccccc3CC(=O)O)cc(-c3cccc(CN)c3)c2o1 [Compound 23h, 2-(2-((2-(acetoxymethyl)-7-(3-(aminomethyl)phenyl)benzofuran-5-yl)methoxy)phenyl)acetic acid] | > 6.00
